Data as given in ChEMBL document CHEMBL1201862, “PubChem BioAssay data set” (2004).
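Exposure lasted 48 hours, with cells grown in 96-well plates and compounds tested at five concentrations. GI50: concentration for 50% inhibition of growth.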 Calls of active or inactive are those of the source. Cut-off read from the data, not from the text of the source: active = GI50 up to about 1.1 µM and inactive = higher.

Assays:
Test in all cases: inhibition of tumour cell growth, NCI panel, 48 h
[1] = system: COLO 205
[2] = system: SW-620
[3] = system: OVCAR-3
[4] = system: KM12
[5] = system: EKVX
[6] = system: UACC-257
[7] = system: MDA-MB-231
[8] = system: OVCAR-8
[9] = system: MCF7
[10] = system: MOLT-4
[11] = system: RXF 393
[12] = system: SF-268
[13] = system: MDA-MB-435
[14] = system: HCT-116
[15] = system: PC-3
[16] = system: Hs-578T
[17] = system: T47D
[18] = system: OVCAR-4
[19] = system: IGROV-1

Structure (SMILES)	GI50 [1]	GI50 [2]	GI50 [3]	GI50 [4]	GI50 [5]	GI50 [6]	GI50 [7]	GI50 [8]	GI50 [9]	GI50 [10]	GI50 [11]	GI50 [12]	GI50 [13]	GI50 [14]	GI50 [15]	GI50 [16]	GI50 [17]	GI50 [18]	GI50 [19]
CC(=O)NC1C(O)C(O)C(CO)OC1n1ncc(=O)[nH]c1=O (stereo not drawn)	> 100 µM (inactive)	> 100 µM (inactive)	> 100 µM (inactive)	> 100 µM (inactive)	> 100 µM (inactive)	> 100 µM (inactive)	> 100 µM (inactive)	> 100 µM (inactive)	> 100 µM (inactive)	> 100 µM (inactive)	> 100 µM (inactive)	> 100 µM (inactive)	> 100 µM (inactive)	> 100 µM (inactive)	> 100 µM (inactive)	> 100 µM (inactive)	> 100 µM (inactive)	> 100 µM (inactive)	> 100 µM (inactive)
C1CN2CCNCCN(CCN1)CC2	> 100 µM (inactive)	> 100 µM (inactive)	> 100 µM (inactive)	> 100 µM (inactive)	> 100 µM (inactive)	> 100 µM (inactive)	> 100 µM (inactive)	> 100 µM (inactive)	> 100 µM (inactive)	> 100 µM (inactive)	> 100 µM (inactive)	> 100 µM (inactive)	> 100 µM (inactive)	> 100 µM (inactive)	> 100 µM (inactive)	> 100 µM (inactive)	> 100 µM (inactive)	> 100 µM (inactive)	> 100 µM (inactive)
O=C(NNC(=S)Nc1ccccc1)c1ccccc1Nc1ccccc1C(=O)NNC(=S)Nc1ccccc1	22.1 µM (inactive)	40.9 µM (inactive)	19.6 µM (inactive)	42 µM (inactive)	21.1 µM (inactive)	19.1 µM (inactive)	21.7 µM (inactive)	20 µM (inactive)	23.8 µM (inactive)	29.6 µM (inactive)	19.2 µM (inactive)	17 µM (inactive)	20.9 µM (inactive)	17.7 µM (inactive)	23 µM (inactive)	13.1 µM (inactive)	27.7 µM (inactive)	26.7 µM (inactive)	8.24 µM (inactive)
Nc1c2ccccc2nc2ccc3c(=O)cc(-c4ccccc4)oc3c12	0.234 µM (active)	0.327 µM (active)	1.42 µM (inactive)	0.596 µM (active)	1.34 µM (inactive)	1.75 µM (inactive)	1.14 µM (inactive)	0.611 µM (active)	0.649 µM (active)	0.435 µM (active)	1.32 µM (inactive)	1.22 µM (inactive)	1.27 µM (inactive)	0.299 µM (active)	1.26 µM (inactive)	1.9 µM (inactive)	1.17 µM (inactive)	0.426 µM (active)	1.12 µM (inactive)
COC(=O)CCC1(C)C2CCC1(C)/C(=N/O)C2 (stereo not drawn)	> 100 µM (inactive)	> 100 µM (inactive)	> 100 µM (inactive)	> 100 µM (inactive)	> 100 µM (inactive)	> 100 µM (inactive)	> 100 µM (inactive)	> 100 µM (inactive)	> 100 µM (inactive)	> 100 µM (inactive)	> 100 µM (inactive)	> 100 µM (inactive)	> 100 µM (inactive)	> 100 µM (inactive)	> 100 µM (inactive)	> 100 µM (inactive)	> 100 µM (inactive)	> 100 µM (inactive)	> 100 µM (inactive)
Nc1nc(N)c2c3c(cnc2n1)CC(c1ccccc1)CC3 (stereo not drawn)	35 µM (inactive)	11.4 µM (inactive)	31 µM (inactive)	23.9 µM (inactive)	11.2 µM (inactive)	65.3 µM (inactive)	21.4 µM (inactive)	7.16 µM (inactive)	11.7 µM (inactive)	50.5 µM (inactive)	17.7 µM (inactive)	11.9 µM (inactive)	6.76 µM (inactive)	2.86 µM (inactive)	21.9 µM (inactive)	30.2 µM (inactive)	23.9 µM (inactive)	14.3 µM (inactive)	0.728 µM (active)
Cc1ccc([N+](=O)[O-])cc1S(=O)(=O)Nc1ccc(C2=NN(S(=O)(=O)c3cc([N+](=O)[O-])ccc3C)C(c3ccccc3)C2)cc1 (stereo not drawn)	27 µM (inactive)	50.5 µM (inactive)	26 µM (inactive)	34.9 µM (inactive)	28.8 µM (inactive)	24.8 µM (inactive)	26.1 µM (inactive)	42.2 µM (inactive)	30.8 µM (inactive)	30 µM (inactive)	36.6 µM (inactive)	17.6 µM (inactive)	36.8 µM (inactive)	18.5 µM (inactive)	26.9 µM (inactive)	< 0.01 µM (active)	41.4 µM (inactive)	33.9 µM (inactive)	29.3 µM (inactive)
